Measured values reported in the NIST ThermoML archive (doi:10.1021/je100353j).

Test: xn = mol fraction of the nth substance listed
Conditions: Liquid

COC(=O)OC [dimethyl carbonate] + C1CCCCC1
mass density [kg/m3]
Conditions | x1 = 0.1 | x1 = 0.2 | x1 = 0.3 | x1 = 0.4 | x1 = 0.5 | x1 = 0.6 | x1 = 0.7 | x1 = 0.8 | x1 = 0.9 | x1 = 1
298.15 K, 5000 kPa | – | – | – | – | – | 922.2 | 956 | 989.4 | 1028.2 | 1068
298.15 K, 10000 kPa | 801.2 | 821.8 | 846 | 870 | 897.5 | 927.1 | 960.8 | 994.2 | 1032.8 | 1072.4
298.15 K, 20000 kPa | 809.2 | 830.2 | 854.6 | 878.8 | 906.5 | 936.1 | 969.8 | 1003.1 | 1041.5 | 1080.8
298.15 K, 30000 kPa | 816.5 | 837.8 | 862.5 | 887 | 914.8 | 944.5 | 978.2 | 1011.4 | 1049.7 | 1088.7
298.15 K, 40000 kPa | 823.2 | 844.8 | 869.8 | 894.5 | 922.5 | 952.3 | 986.1 | 1019.3 | 1057.4 | 1096.2
303.15 K, 100 kPa | 786.9 | 806.9 | 830.4 | 854.1 | 881.2 | 910.1 | 944.1 | 977.4 | 1015.8 | 1056.5
303.15 K, 5000 kPa | 791.4 | 811.7 | 835.4 | 859.2 | 886.4 | 915.4 | 949.3 | 982.6 | 1020.9 | 1061.3
303.15 K, 10000 kPa | 796 | 816.5 | 840.4 | 864.4 | 891.6 | 920.6 | 954.5 | 987.7 | 1025.8 | 1065
